Measured values from PMC12592502, “Unraveling the mechanisms behind the enhanced efficacy of β-lactam-based sideromycins” (Communications Biology, 2025).
Values after ≈ are worked out from the molar mass of the structure shown. Where two headings read alike, the source gives them in different places.

Tests used:
PBP3 = biological target: T1, PBP3 (Pseudomonas aeruginosa, UniProt G3XD46); test: Membrane PBP binding assay, competition with Bocillin FL; conditions: for IC50 value ratio βL/SID-βL, PBP3: P. aeruginosa ATCC 27853, membrane
T1 construct: using bacterial membranes as the source of PBPs; endogenous in cells; host or cells: P. aeruginosa ATCC 27853 membrane preparation
Protocol: (§1) Membrane extracts containing PBPs were obtained as described above. Briefly, all species were grown in 1 L of TSB until the OD600 reached 0.9. The washed pellet was incubated with lysozyme (400 μg/mL), DNase (10 μg/mL) RNase(10 μg/mL) and anti-protease cocktail (200 mg/20 mL). Lysis was done with a French press (20,000 psi) and membrane protein were pelleted by ultracentrifugation steps (100,000 × g). The pellet was suspended in a minimal volume (300–500 μL) of KP 0.05 M buffer at pH 7. The protein concentration in the membrane preparations was determined with the Micro BCA TM Protein Assay Kit (Thermo Fisher Scientific, Rockford, IL) using bovine serum albumin as a standard.
(§2) The PBP binding assay was done as described previously[36],[56],[57]. For each antibiotic concentration tested, a quantity of 25 to 40 μg of membrane preparation was used as the source of PBPs, depending on the species. For the purified PaPBP3, 150 ng was used in the assay. First, increasing concentrations of the test antibiotic was added to the membrane or purified PaPBP3 preparations and incubated for 10 min at 30 °C. The reporter molecule Bocillin FL was then added at 12.5 μM for the membrane PBPs preparations and at 500 nM for the pure PaPBP3 samples for an additional 20 min at 30 °C. All reactions were stopped with the addition of the Laemmli-loading buffer (Bio-Rad) containing fresh β-mercaptoethanol (Sigma). All reactions were then heated at 100°C for 3 min before migration on SDS-polyacrylamide discontinuous gel system (7.5% stacking and 10% separating). Control samples without Bocillin FL were also included to highlight autofluorescent proteins that are not PBPs.
(§3) To be able to visualize labeled PBPs after electrophoresis, gels were rinsed in water and fixed in a solution of 50% methanol and 7% acetic acid for 30 min. The fluorescent images of gels were obtained with the Typhoon FLA 9500 instrument (GE-Healthcare Bio-Sciences Inc., Baie-d’Urfé, QC, CA) using a 473 nm excitation wavelength. To obtain quantifiable data, the software Quantity One 1D analysis was used (version 4.6.6; Bio-Rad Laboratories, Richmond, CA). The volume (intensity × constant area) of each PBP was measured. […] All IC50 data were obtained from at least two independent PBP binding assays using two different sets of compound concentrations using a linear regression. The PBP profiles were confirmed, and the PBP numbering were determined using published data and individual molecular weights. […] For example, amdinocillin (Sigma) was used for PBP2 identification. […] The IC50 for PBP 2 of P. aeruginosa was measured by including the SDS-PAGE comigrating autofluorescent protein in the background, as done previously.

PBP2 = biological target: T2, PBP2 (Pseudomonas aeruginosa, UniProt Q9X6V3); test: as above
T2 construct: using bacterial membranes as the source of PBPs; endogenous in cells; host or cells: P. aeruginosa ATCC 27853 membrane preparation
T2 sequence (Q9X6V3 1-646): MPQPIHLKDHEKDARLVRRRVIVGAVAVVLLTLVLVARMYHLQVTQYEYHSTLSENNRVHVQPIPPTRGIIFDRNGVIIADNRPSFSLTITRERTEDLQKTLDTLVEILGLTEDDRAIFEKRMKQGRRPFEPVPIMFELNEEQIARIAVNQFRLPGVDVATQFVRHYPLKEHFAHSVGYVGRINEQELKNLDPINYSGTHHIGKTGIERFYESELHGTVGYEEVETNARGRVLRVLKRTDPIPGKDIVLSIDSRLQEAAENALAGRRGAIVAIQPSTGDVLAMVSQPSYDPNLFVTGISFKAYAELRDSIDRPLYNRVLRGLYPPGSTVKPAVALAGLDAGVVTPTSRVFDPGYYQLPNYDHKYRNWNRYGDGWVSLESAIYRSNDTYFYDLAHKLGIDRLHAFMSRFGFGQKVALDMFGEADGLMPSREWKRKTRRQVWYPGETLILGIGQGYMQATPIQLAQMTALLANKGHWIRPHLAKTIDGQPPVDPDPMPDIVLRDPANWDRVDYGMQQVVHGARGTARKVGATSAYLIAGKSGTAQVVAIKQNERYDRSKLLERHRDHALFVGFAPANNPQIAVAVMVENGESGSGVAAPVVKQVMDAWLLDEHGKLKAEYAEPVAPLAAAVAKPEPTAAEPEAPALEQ
Protocol: as §1, §2, §3

PBP1a/1b = test: as above; conditions: K. pneumoniae ATCC 13883 membranes
Protocol: as §1, §2, §3

PBP1a = biological target: T3, PBP1a (Pseudomonas aeruginosa, UniProt Q07806); test: as above
T3 construct: using bacterial membranes as the source of PBPs; endogenous in cells; host or cells: P. aeruginosa ATCC 27853 membrane preparation
Protocol: as §1, §2, §3

E. coli ATCC 25922 = test: MIC, broth microdilution (CLSI); assay type: cell-based, Escherichia coli; conditions: for MIC ratio unconjugated β-lactam/conjugate / MIC ratio 0/1 / MIC ratio 1/0: ID-MHBCA; for MIC ratio 0/1: 0 and 1 µg/mL supplemental iron (Table S2); for MIC ratio 1/0: 1 versus 0 µg/mL supplemental iron (peer review file table); for MIC ratio unconjugated β-lactam/conjugate (AMP/BAMP, LOR/BLOR, CEF/MCEF): MHBCA
Protocol: All bacterial strains (see description and sources Table S1) were stored at −80 °C, and grown on tryptone soya agar (TSA) at 35 °C. The iron-deprived (ID)-MHBCA (cation-adjusted Muller-Hinton Broth, Becton Dickinson, Mississauga, ON, Canada) medium was prepared as reported by refs. [21],[50]. Briefly, MHBCA was treated with 10% Chelex® 50-100 mesh (Sigma) and stirred for 6 h at room temperature. The resin was removed by filtration. Divalent Ca^2+ (CaCl2), Mg^2+ (MgCl2), and Zn^2+(ZnSO4), were then added in the iron-depleted medium at 22, 12, and 1 μg/ml respectively. Finally, the pH was adjusted to 7.3, and the medium was sterilized with a 0.2-μm filter. Regular MHBCA (i.e., not treated with Chelex®) was used to compare the inhibitory activity of conjugates in iron-sufficient conditions.
Minimal inhibitory concentrations (MICs) were performed using a broth microdilution technique according to the Clinical and Laboratory Standards Institute (CLSI) guidelines. MICs were determined in MHBCA and in ID-MHBCA. To check the impact of β-lactamases, MICs in the presence of a β-lactamase inhibitor were also determined. The inhibitor was homogenized at 2X the final concentration and added to the bacterial inoculum just before distributing cells into the wells containing the drug dilutions. The final concentration of each inhibitor was 4 μg/mL for clavulanic acid (tested against K. pneumoniae) and 200 μg/mL for 3-aminophenylboronic acid (tested against P. aeruginosa and A. baumannii).

[1] = Escherichia coli, ATCC25922, ID-MHBCA + 1 µg/mL supplemental iron
[2] = P. aeruginosa ATCC 27853 membranes, read-out: IC50 PBP3
[3] = P. aeruginosa ATCC 27853 membranes, read-out: IC50 PBP2
[4] = P. aeruginosa ATCC 27853 membranes, read-out: IC50 PBP1a
[5] = Escherichia coli, ATCC25922, ID-MHBCA + 0.1 µg/mL supplemental iron
[6] = Escherichia coli, ATCC25922, MHBCA (+)
[7] = Escherichia coli, ATCC25922, iron-deprived ID-MHBCA (−), 0 µg/mL supplemental iron
[8] = iron-deprived ID-MHBCA (−), 0 µg/mL supplemental iron

T1 sequence (G3XD46 whole entry): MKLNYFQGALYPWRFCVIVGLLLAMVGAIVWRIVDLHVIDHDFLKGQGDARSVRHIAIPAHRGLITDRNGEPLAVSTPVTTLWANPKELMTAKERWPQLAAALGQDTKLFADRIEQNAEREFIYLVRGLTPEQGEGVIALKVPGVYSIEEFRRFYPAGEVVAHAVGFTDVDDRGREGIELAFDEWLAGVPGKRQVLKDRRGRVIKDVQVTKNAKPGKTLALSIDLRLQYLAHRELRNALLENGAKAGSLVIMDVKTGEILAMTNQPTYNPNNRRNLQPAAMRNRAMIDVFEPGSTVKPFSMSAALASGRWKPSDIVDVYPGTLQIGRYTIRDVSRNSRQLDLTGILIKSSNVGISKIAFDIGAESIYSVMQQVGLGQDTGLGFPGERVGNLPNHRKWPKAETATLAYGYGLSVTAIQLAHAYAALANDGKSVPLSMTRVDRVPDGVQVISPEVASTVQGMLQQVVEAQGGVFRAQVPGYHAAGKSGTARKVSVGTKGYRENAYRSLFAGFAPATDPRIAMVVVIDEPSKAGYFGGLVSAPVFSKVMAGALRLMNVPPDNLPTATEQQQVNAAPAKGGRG
T3 sequence (Q07806 whole entry): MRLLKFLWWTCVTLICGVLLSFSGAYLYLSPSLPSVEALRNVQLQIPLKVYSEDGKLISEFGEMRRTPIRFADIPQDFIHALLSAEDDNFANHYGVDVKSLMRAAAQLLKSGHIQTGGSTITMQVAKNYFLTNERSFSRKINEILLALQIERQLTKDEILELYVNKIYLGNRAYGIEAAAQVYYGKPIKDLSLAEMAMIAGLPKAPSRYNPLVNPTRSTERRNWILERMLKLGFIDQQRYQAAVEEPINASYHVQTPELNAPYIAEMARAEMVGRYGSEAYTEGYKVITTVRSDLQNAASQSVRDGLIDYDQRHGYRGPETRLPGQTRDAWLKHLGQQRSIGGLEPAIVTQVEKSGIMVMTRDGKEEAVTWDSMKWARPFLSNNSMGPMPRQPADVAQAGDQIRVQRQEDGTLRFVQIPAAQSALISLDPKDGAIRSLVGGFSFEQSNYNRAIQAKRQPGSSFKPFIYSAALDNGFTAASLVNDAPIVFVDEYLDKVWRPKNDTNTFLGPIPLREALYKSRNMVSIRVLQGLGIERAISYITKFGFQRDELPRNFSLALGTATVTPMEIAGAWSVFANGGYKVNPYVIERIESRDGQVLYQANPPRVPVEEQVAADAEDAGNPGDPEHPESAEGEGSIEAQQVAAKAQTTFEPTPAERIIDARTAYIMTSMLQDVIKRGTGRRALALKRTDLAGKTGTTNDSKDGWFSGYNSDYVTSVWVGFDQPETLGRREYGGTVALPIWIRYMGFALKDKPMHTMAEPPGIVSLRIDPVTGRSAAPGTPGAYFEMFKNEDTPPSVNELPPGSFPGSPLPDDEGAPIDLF

Structure (SMILES) | IC50 (PBP3) [µM] | IC50 (PBP2) [µM] | IC50 (PBP1a/1b) [µM] | IC50 (PBP1a) [µM] | MIC (E. coli ATCC 25922; [1]) [µM] | IC50 value ratio βL/SID-βL, PBP3 (PBP3) | IC50 (PBP3; [2]) [µM] | IC50 (PBP2; [3]) [µM] | IC50 (PBP1a; [4]) [µM] | MIC (E. coli ATCC 25922; [5]) [µM] | MIC (E. coli ATCC 25922; [6]) [µM] | MIC (E. coli ATCC 25922; [7]) [µM] | MIC ratio unconjugated β-lactam/conjugate (E. coli ATCC 25922) | MIC ratio 0/1 (E. coli ATCC 25922) | MIC ratio 1/0 (E. coli ATCC 25922) | MIC ratio unconjugated β-lactam/conjugate (AMP/BAMP, LOR/BLOR, CEF/MCEF) (E. coli ATCC 25922) | MIC (E. coli ATCC 25922; ID-MHBCA + 0.1 µg/mL supplemental iron) [µM] | MIC (E. coli ATCC 25922; ID-MHBCA + 1 µg/mL supplemental iron) [µM] | MIC (E. coli ATCC 25922; MHBCA (+)) [µM] | MIC (E. coli ATCC 25922; [8]) [µM]
CC1(C)S[C@@H]2[C@H](NC(=O)[C@H](N)c3ccccc3)C(=O)N2[C@H]1C(=O)O [AMP, ampicillin, reference compound] | 0.24 ± 0.08 | > 50 | 8 ± 1 | 1.9 ± 1.5 | 25 | – | – | – | – | – | – | – | – | – | – | – | – | – | – | –
CC1(C)SC2C(NC(=O)C(NC(=O)CN(CCCCNC(=O)c3cccc(O)c3O)C(=O)c3cccc(O)c3O)c3ccccc3)C(=O)N2C1C(=O)O (centres unmarked) [BAMP, bis-catechol (azotochelin)-ampicillin] | – | – | 4.24 ± 0.07 | – | 0.2 | 1.5 | 0.16 ± 0.01 | > 50 | 1.4 ± 0.7 | 0.1 | 0.1 (≈ 0.075 µg/mL) | 0.05 (≈ 0.0375 µg/mL) | 256 | 4 | 4 | 128 | – | – | – | –
O=C(CN(CCCCNC(=O)c1cccc(O)c1O)C(=O)c1cccc(O)c1O)NC(C(=O)NC1C(=O)N2C(C(=O)O)=C(Cl)CCC12)c1ccccc1 (centres unmarked) [BLOR, bis-catechol (azotochelin)-loracarbef] | – | – | 0.43 ± 0.17 | – | 0.1 | > 16 | 3.2 ± 0.1 | 4.8 ± 3 | 0.58 ± 0.04 | 0.05 | 0.024 (≈ 0.018 µg/mL) | 0.012 (≈ 0.009 µg/mL) | 128 | 8 | 8 | 128 | – | – | – | –
N[C@@H](C(=O)N[C@@H]1C(=O)N2C(C(=O)O)=C(Cl)CS[C@H]12)c1ccccc1 [CEF, cefaclor, reference compound] | – | – | 7.9 ± 1.5 | – | – | – | 39 ± 1.5 | > 50 | 33.9 ± 6.9 | 3.1 | 3.1 (≈ 1.14 µg/mL) | 3.1 (≈ 1.14 µg/mL) | – | 1 | 1 | – | – | – | – | –
N[C@@H](C(=O)N[C@@H]1C(=O)N2C(C(=O)O)=C(Cl)CC[C@H]12)c1ccccc1 [LOR, loracarbef, reference compound] | – | – | 4.5 ± 2.1 | – | – | – | > 50 | > 50 | > 50 | – | – | – | – | 2 | 2 | – | 3.1 | 3.1 | 3.1 (≈ 1.08 µg/mL) | 1.6 (≈ 0.56 µg/mL)
O=C(CCC(=O)N(CCCCNC(=O)c1cccc(O)c1O)CCCNC(=O)c1cccc(O)c1O)NCCCCCN(O)C(=O)CCCC(=O)NC(C(=O)NC1C(=O)N2C(C(=O)O)=C(Cl)CSC12)c1ccccc1 (centres unmarked) [MCEF, mixed ligand bis-catechol-mono-hydroxamate-cefaclor] | – | – | 0.35 ± 0.02 | – | 25 | – | 2.01 ± 0.48 | 6.74 ± 0.03 | 0.39 ± 0.35 | – | 6.3 to 25 (≈ 6.81 to 27 µg/mL) | > 200 | <0.016 | – | – | – | – | – | – | >200
